The source of these data is paper PMC10108740 (Journal of Medicinal Chemistry, 2023).

Data set [1] deals with SARS-CoV-2 B.1.1.7 (Alpha). Description: microbe, parasite or virus in culture. The note with it: Severe acute respiratory syndrome coronavirus 2, Calu-3. It counts as cell-based.
For data set [2], the system named is SARS-CoV-2 BA.1 (Omicron). As to the kind of experiment: microbe, parasite or virus in culture. Type of data set: cell-based. The note with it: Severe acute respiratory syndrome coronavirus 2, Calu-3.
In data set [3] the test system is Calu-3 cells. The following applies: human, 44 h.
Another data set concerns SARS-CoV-2 P.1 (Gamma). As to the kind of experiment: microbe, parasite or virus in culture. It counts as cell-based. The following applies: Severe acute respiratory syndrome coronavirus 2, Calu-3.
The test system of data set [4] is SARS-CoV-2 (WA-1). Description: Antiviral immunofluorescence assay, SARS-CoV-2 WA1 in human pluripotent stem cell-derived lung cells. Type of data set: cell-based. The note with it: 24 hpi.
In data set [5] the test system is SARS-CoV-2 (WA-1). Description: Antiviral immunofluorescence assay, SARS-CoV-2 WA1 in Huh7.5 cells. Type of data set: cell-based. The following applies: WA-1, Huh7.5 cells, immunofluorescence, 48 hpi; for EC50: read-out: EC50; for EC90: read-out: EC90.
For data set [6] the following is noted: hamster, in vivo; cited from earlier work.
A short description of data set [7]: in vitro. The note with it: human.
Data set [8] has as its system SARS-CoV-2 (WA-1). Description: Antiviral immunofluorescence assay, SARS-CoV-2 WA1 in Vero-TMPRSS2 cells. It counts as cell-based.
Data set [9] has as its system SARS-CoV-2 B.1.351 (Beta). As to the kind of experiment: microbe, parasite or virus in culture. Type of data set: cell-based. The note with it: Severe acute respiratory syndrome coronavirus 2, Calu-3.
A short description of data set [10]: in vitro. The note with it: chlorocebus aethiops.
Protocol: Cells were seeded as per SARS-CoV-2 infection studies in opaque walled 96-well cell culture plates and incubated overnight for Huh7.5 and Vero-TMPRSS2 cells and for an additional 24h for Calu-3 cells. Compounds or controls were added at the indicated concentrations. Cells were incubated for 48h for Huh7.5 cells, 40–44h for Calu-3 cells, or 30–32h for Vero-TMPRSS2 cells at 37 °C and 5% CO2, an equal volume of CellTiter-Glo reagent (Cat. #G7570, Promega) or CellTiter-Glo 2.0 reagent (Cat. #G9241, Promega) was added and mixed, and luminescence was recorded on a Veritas Microplate Luminometer (Turner BioSystems) according to manufacturer recommendations. Percent viability was calculated compared to DMSO controls, and CC50 values were calculated using Prism 9.
Calu-3 cells were treated for 44h (A), Huh7.5 cells were treated for 48h (B), and Vero-
TMPRSS2 cells were treated for 38h (C) as in infection assays for each cell type. Cell viability
was measured by CellTiter-Glo assay and reported as % cell viability relative to DMSO controls.
Best fit curves calculated in Graphpad Prism 9 were used
to compute cytotoxic concentration 50% (CC50) values in Tables 1-3.
The nature of data set [11]: in vitro. The note with it: human. This is another data set of the same source.
The test system of data set [12] is SARS-CoV-2 WA1 (USA-WA1/2020). Description: Antiviral immunofluorescence assay, SARS-CoV-2 WA1 in Calu-3 cells. It counts as cell-based. The note with it: for EC50 / EC90: immunofluorescence, 44 hpi, mean ± SD.
Data set [13] relates to SARS-CoV-2 (WA-1). More on the design: method as in PMID 34310217. The note with it: Huh7.5 cells; read-out: EC50, inhibition of SARS-CoV-2 replication; cited from earlier work.
The test system of data set [14] is SARS-CoV-2 B.1.617.2 (Delta). Description: microbe, parasite or virus in culture. Type of data set: cell-based. The note with it: Severe acute respiratory syndrome coronavirus 2, Calu-3.
Data set [15] relates to Calu-3 cells. The following applies: cited from earlier work.
In data set [16] the test system is SARS-CoV-2 WA1 (USA-WA1/2020). Details: method as in Schooley et al.[24]. The note with it: Calu-3 cells, ref Schooley et al.[24]; cited from earlier work.
Data set [17] relates to Calu-3 cells. Description: Cell viability assay (CellTiter-Glo), Calu-3 cells. The following applies: uninfected Calu-3 cells, 44h. For orientation: ATP-based viability assays read luminescence as a measure of living cells.
The test system of data set [18] is human pluripotent stem cell-derived lung cells. As to the kind of experiment: Cytotoxicity by relative number of nuclei, human pluripotent stem cell-derived lung cells. The following applies: PSC-lung cells, relative number of nuclei (IF) vs vehicle-treated wells.
The subject of the next data set is Huh7.5 cells. Description: Cell viability assay (CellTiter-Glo), Huh7.5 cells. The note with it: uninfected Huh7.5 cells, 48h.
Another data set relates to Vero-TMPRSS2 cells. As to the kind of experiment: Cell viability assay (CellTiter-Glo), Vero-TMPRSS2 cells. The following applies: uninfected Vero-TMPRSS2 cells, 38h.
Where [19] appears, read: Severe acute respiratory syndrome coronavirus 2, WA-1, PSC-lung cells (ALDA 31616 and H9).
[20] abbreviates: Severe acute respiratory syndrome coronavirus 2.
[21] abbreviates: WA1, Calu-3 cells, read-out: EC50.
Where [22] appears, read: WA-1, PSC-lung cells (ALDA 31616 and H9).
Setting [23] is: WA-1, Vero-TMPRSS2 cells, immunofluorescence, 38 hpi.
The mark [24] stands for this setting: WA-1, Vero-TMPRSS2 cells, immunofluorescence, 38 hpi, read-out: EC50.

Like-named read-outs stand apart in the source and are kept apart here. Bounds are passed on as bounds.

One may read the EC50 as the concentration giving half of the maximal effect. Usually EC90 stands for the concentration at which the effect reaches the 90% level. As to `CCCCCCCCCCCCCCCCCCOC[C@H](COP(=O)(O)OC[C@H]1O[C@@](C#N)(c2ccc3c(N)ncnn23)[C@H](O)[C@@H]1O)OCc1ccccc1` [Compound V2043, 1-O-octadecyl-2-O-benzyl-sn-glyceryl-phospho-RVn], the EC50 is 146 ± 95 nM in data set [1]; 44 ± 12 nM in [2]; 167 ± 84 nM in the data set on SARS-CoV-2 P.1 (Gamma); 382 ± 205 nM in the data set with SARS-CoV-2 (WA-1) [4] (setting [19]); 140 ± 63 nM in the data set on SARS-CoV-2 (WA-1) [5] (setting [20]); 216 ± 38 nM in the data set on SARS-CoV-2 (WA-1) [8] (Severe acute respiratory syndrome coronavirus 2, Vero/TMPRSS2). The EC50 in data set [9] was 146 ± 104 nM; in data set [12] (Severe acute respiratory syndrome coronavirus 2, Calu-3, WA1, Calu-3 cells), 138 nM; in [12] (setting [21]), 136 ± 56 nM; in the data set with SARS-CoV-2 (WA-1) [13], 138 nM; in data set [14], 85 ± 24 nM. Further, the EC90 is 517 ± 169 nM in [1]; 359 ± 447 nM in data set [2]; 362 ± 42 nM in the data set with SARS-CoV-2 P.1 (Gamma); 736 ± 267 nM in the data set with SARS-CoV-2 (WA-1) [4] (setting [19]); 424 ± 267 nM in the data set on SARS-CoV-2 (WA-1) [5] (setting [20]); 403 ± 128 nM with SARS-CoV-2 (WA-1) [8] (Severe acute respiratory syndrome coronavirus 2, WA-1, Vero-TMPRSS2 cells, immunofluorescence, 38 hpi). The 90% effect concentration (EC90) in [9] worked out at 645 ± 459 nM; in [12] (Severe acute respiratory syndrome coronavirus 2, WA1, Calu-3 cells) it was 323 ± 157 nM; in data set [14], 484 ± 457 nM. The CC50 in the data set on Calu-3 cells [3] came out at 58300 nM. Moreover, in [6], the oral bioavailability result is recorded as “orally bioavailable”. The compound further came in with a CC50 at 44 h in the data set “in vitro [7]” of 58300 nM. In “in vitro [10]”, the CC50 at 38 h amounted to 97900 nM. Also, the CC50 at 24 h in the data set “in vitro [11]” was over 20000 nM.
On to `CCC(CC)COC(=O)[C@H](C)N[P@](=O)(OC[C@H]1O[C@@](C#N)(c2ccc3c(N)ncnn23)[C@H](O)[C@@H]1O)Oc1ccccc1` [RDV, remdesivir], for which, in the data set on Calu-3 cells [15] (Calu-3 cells, ref Schooley et al.[24]), the CC50 is over 100000 nM. For the same compound, in data set [16], the EC50 is 230 nM and the EC90 is 310 nM.
With `N#C[C@@]1(c2ccc3c(N)ncnn23)O[C@H](CO)[C@@H](O)[C@H]1O` [RVn, GS-441524], the CC50 in the data set on Calu-3 cells [15] is over 100000 nM.
As for “((2R,3S,4R,5R)-5-(4-Aminopyrrolo[2,1-f][1,2,4]triazin-7-yl)-5-cyano-3,4-dihydroxytetrahydrofuran-2-yl)methyl ((R)-2-((3-fluoro-4-methoxybenzyl)oxy)-7-(tetradec-5-en-1-yloxy)heptyl) hydrogen phosphate [Compound 10g]”, the CC50 in the data set with Calu-3 cells [17] was 58700 nM; in data set [18] it was over 20000 nM; in the data set on Huh7.5 cells, over 100000 nM; with Vero-TMPRSS2 cells, over 100000 nM. For the same compound, the EC50 in the data set with SARS-CoV-2 (WA-1) [4] (setting [22]) amounted to 82 ± 13 nM; with SARS-CoV-2 (WA-1) [5] it was 54 ± 16 nM; in the data set on SARS-CoV-2 (WA-1) [8] (setting [24]), 300 ± 38 nM; in data set [12] (setting [21]), 70 ± 3 nM. Also, the EC90 in the data set with SARS-CoV-2 (WA-1) [4] (setting [22]) turned out to be 175 ± 16 nM; in the data set with SARS-CoV-2 (WA-1) [5] it was 95 ± 27 nM; with SARS-CoV-2 (WA-1) [8] (setting [23]) it was 554 ± 54 nM; in [12] (WA1, Calu-3 cells) it was 149 ± 117 nM. Besides, in data set [12] (3-fluoro-4-methoxybenzyl at sn-2 versus unsubstituted benzyl), the fold better potency is given as 2–3 fold. Also, the “fold more active than RDV” value in data set [12] (Calu-3 cells, based on EC50) is 3.3 fold.
On to “((2R,3S,4R,5R)-5-(4-Aminopyrrolo[2,1-f][1,2,4]triazin-7-yl)-5-cyano-3,4-dihydroxytetrahydrofuran-2-yl)methyl ((R)-2-(benzyloxy)-7-(tetradec-5-en-1-yloxy)heptyl) hydrogen phosphate [Compound 10a]”, for which the CC50 was 79200 nM with Calu-3 cells [17], over 20000 nM in data set [18], over 100000 nM with Huh7.5 cells and over 100000 nM in the data set with Vero-TMPRSS2 cells. Also, the EC50 in the data set on SARS-CoV-2 (WA-1) [4] (setting [22]) is 267 ± 118 nM; in the data set on SARS-CoV-2 (WA-1) [5] it was 109 ± 55 nM; in the data set on SARS-CoV-2 (WA-1) [8] (setting [24]) it was 293 ± 20 nM; in data set [12] (setting [21]), 193 ± 58 nM. Besides, the EC90 with SARS-CoV-2 (WA-1) [4] (setting [22]) came out at 555 ± 250 nM; in the data set with SARS-CoV-2 (WA-1) [5] it was 224 ± 100 nM; in the data set on SARS-CoV-2 (WA-1) [8] (setting [23]), 570 ± 54 nM; in data set [12] (WA1, Calu-3 cells), 324 ± 127 nM.
